Results on 19 molecules are retold here after ChEMBL document CHEMBL4043138, “Synthesis of antimalarial amide analogues based on the plant serrulatane diterpenoid 3,7,8-trihydroxyserrulat-14-en-19-oic acid” (Bioorg Med Chem Lett, 2017).

Structures are written as SMILES. pIC50: −log10 of the molar value. Calls of active or inactive are those of the source. No cut-off for these calls is given here.

Data set [1] deals with Plasmodium falciparum. The experiment in a line: Antimalarial activity against Plasmodium falciparum 3D7 after 72 hrs by DAPI staining-based fluorescence microscopic analysis. The note with it: 3D7, 72 h. It is filed as functional.
Data set [2] concerns Plasmodium falciparum. Briefly: Antimalarial activity against Plasmodium falciparum Dd2 after 72 hrs by DAPI staining-based fluorescence microscopic analysis. It is filed as functional. The conditions noted are these: Dd2, 72 h.
Data set [3] in a line: Selectivity ratio of IC50 for Plasmodium falciparum Dd2 to IC50 for Plasmodium falciparum 3D7. Type of data set: functional.
In data set [4] the test system is HEK293. Briefly: (§1) Cytotoxicity against HEK293 cells assessed as cell growth inhibition at 80 uM after 72 hrs by Alamar blue assay relative to control. It is filed as cell-based. The conditions noted are these: human, hek293, 72 h, 80 µM. A general note: Alamar Blue is a resazurin reagent that responds to reducing activity.
The test system of data set [5] is HEK293. The experiment in a line: Cytotoxicity against HEK293 cells assessed as cell growth inhibition after 72 hrs by Alamar blue assay. Type of data set: cell-based. The conditions noted are these: Homo sapiens, HEK293, 72 h.
Data set [6] can be described thus: Selectivity index, ratio of IC50 for HEK293 cells to IC50 for Plasmodium falciparum 3D7. Type of data set: toxicity. The note with it: human, HEK293 cells versus Plasmodium falciparum 3D7; read-out: Ratio IC50.
Data set [7] can be described thus: Cytotoxicity against HEK293 cells assessed as cell growth inhibition at 20 uM after 72 hrs by Alamar blue assay relative to control. Type of data set: cell-based. The note with it: human, read-out: GI.
Data set [8] can be described thus: as §1. The conditions noted are these: human, HEK293 cells; read-out: GI. It is filed as cell-based.
The test system of data set [9] is Plasmodium falciparum. The experiment in a line: Antimalarial activity against Plasmodium falciparum 3D7 at 10 uM after 72 hrs by DAPI staining-based fluorescence microscopic analysis. Type of data set: functional.
In data set [10] the test system is Plasmodium falciparum. The experiment in a line: Antimalarial activity against Plasmodium falciparum Dd2 at 80 uM after 72 hrs by DAPI staining-based fluorescence microscopic analysis. It is filed as functional.
Data set [11] relates to HEK293. The experiment in a line: Cytotoxicity against HEK293 cells assessed as cell growth inhibition at 40 uM after 72 hrs by Alamar blue assay. Type of data set: cell-based. The note with it: human, hek293, 72 h.

For the molecule `CC(C)=CCC[C@H](C)[C@H]1c2cc(C(=O)NCCc3ccc(F)cc3)c(OC(=O)C(C)(C)C)c(OC(=O)C(C)(C)C)c2[C@H](C)C[C@H]1OC(=O)C(C)(C)C`, the pIC50 (as a rule, −log10 of the IC50, conventionally taken in molar units) in the data set with Plasmodium falciparum [1] is 5.90; in the data set on Plasmodium falciparum [2], 5.42; in the data set with HEK293 [5], 4.10. In data set [3], the Ratio IC50 was 3. For the same molecule, in the data set on HEK293 [4], the “growth inhibition (GI)” value is given as “Non-Toxic”. Also, the selectivity ratio in data set [6] was more than 64.
On to `C[C@H]1[C@H](OC(=O)CCC(=O)O)O[C@@H]2O[C@@]3(C)CC[C@H]4[C@H](C)CC[C@@H]1[C@@]24OO3` [ARTESUNATE], for which the results for the pIC50 in the data set with Plasmodium falciparum [2] and with HEK293 [5] were 9.00 and 5.00, respectively. In [7], the inhibition at 72 h, 20 µM came to 91%. The selectivity ratio in [6] is more than 11600.
Regarding `CC(C)=CCC[C@H](C)[C@H]1c2cc(C(=O)NCc3ccccc3)c(OC(=O)C(C)(C)C)c(OC(=O)C(C)(C)C)c2[C@H](C)C[C@H]1OC(=O)C(C)(C)C`, the negative logarithm of the IC50 (pIC50) with Plasmodium falciparum [1] was 5.67; with Plasmodium falciparum [2], 5.21; in the data set on HEK293 [5], 4.40. For the same molecule, the Ratio IC50 in data set [3] amounted to 2.9. In addition, the inhibition at 72 h, 80 µM in [8] amounted to 82%. Further, in data set [6], the selectivity ratio is 19.
For the molecule `CC(=O)O[C@@H]1C[C@@H](C)c2c(cc(C(=O)O)c(O)c2O)[C@@H]1[C@@H](C)CCC=C(C)C`, the outcome with Plasmodium falciparum [9] was inactive.
Turning to `CC(C)=CCC[C@H](C)[C@H]1c2cc(C(=O)O)c(O)c(OC(=O)C(C)(C)C)c2[C@H](C)C[C@H]1OC(=O)C(C)(C)C`, the figures for the pIC50 with Plasmodium falciparum [1], with Plasmodium falciparum [2] and with HEK293 [5] were 5.07, 4.99 and 4.40, respectively. For the same molecule, the Ratio IC50 in [3] worked out at 1.2. In data set [8], the inhibition at 72 h, 80 µM is 100%. Besides, in data set [6], the selectivity ratio came out at 4.7.
Turning to `CC(C)=CCC[C@H](C)[C@H]1c2cc(C(=O)O)c(OC(=O)C(C)(C)C)c(OC(=O)C(C)(C)C)c2[C@H](C)C[C@H]1O`, the negative logarithm of the IC50 (pIC50) with Plasmodium falciparum [1] was 4.87; in the data set with HEK293 [5], 4.40. The inhibition at 72 h, 80 µM in data set [8] was 70%. Also, in the data set on Plasmodium falciparum [10], the result was inactive. In addition, the selectivity ratio in [6] came out at 2.9.
On to `CC(C)=CCC[C@H](C)[C@H]1c2cc(C(=O)O)c(OC(=O)C(C)(C)C)c(OC(=O)C(C)(C)C)c2[C@H](C)C[C@H]1OC(=O)C(C)(C)C`, for which the negative logarithm of the IC50 (pIC50) in the data set with Plasmodium falciparum [1] was 5.00; in the data set with Plasmodium falciparum [2], 4.74; in the data set with HEK293 [5], 4.40. In addition, the Ratio IC50 in data set [3] was 1.8. Moreover, the inhibition at 72 h, 80 µM in data set [8] was found to be 100%. The selectivity ratio in [6] came out at 4.
As to `CC(C)=CCC[C@H](C)[C@H]1c2cc(C(=O)NCCc3ccc(Cl)cc3)c(OC(=O)C(C)(C)C)c(OC(=O)C(C)(C)C)c2[C@H](C)C[C@H]1O`, the negative-log IC50 (pIC50) in the data set with Plasmodium falciparum [1] was 5.61; in the data set on Plasmodium falciparum [2] it was 5.34; with HEK293 [5] it was 4.10. The Ratio IC50 in [3] was 1.9. In [8], the inhibition at 72 h, 80 µM was 68%. The selectivity ratio in data set [6] is 32.
On to `CC(C)=CCC[C@H](C)[C@H]1c2cc(C(=O)NCCc3ccccc3)c(OC(=O)C(C)(C)C)c(OC(=O)C(C)(C)C)c2[C@H](C)C[C@H]1OC(=O)C(C)(C)C`, for which the negative logarithm of the IC50 (pIC50) in the data set with Plasmodium falciparum [1] was 5.85; with Plasmodium falciparum [2], 5.44; with HEK293 [5], 4.10. Besides, in data set [3], the Ratio IC50 was 2.6. Moreover, the “growth inhibition (GI)” value with HEK293 [4] is given as “Non-Toxic”. Besides, the selectivity ratio in data set [6] is more than 57.
For the molecule `COc1ccc(C[C@H](N)C(=O)N[C@H]2[C@@H](O)[C@H](n3cnc4c(N(C)C)ncnc43)O[C@@H]2CO)cc1` [PUROMYCIN], the pIC50 with Plasmodium falciparum [1] is 7.27; in the data set with Plasmodium falciparum [2], 7.36; in the data set with HEK293 [5], 6.34. Moreover, in data set [3], the Ratio IC50 is 1.16. Also, the selectivity ratio in data set [6] turned out to be 9.
On to `CC(=O)OCc1cc2c(c(O)c1O)[C@H](C)C[C@@H](OC(C)=O)[C@H]2[C@@H](C)CCC=C(C)C`, for which the values for the negative-log IC50 (pIC50) in the data set on Plasmodium falciparum [1], in the data set on Plasmodium falciparum [2] and with HEK293 [5] were 5.16, 5.06 and 4.10, respectively. For the same molecule, in [3], the Ratio IC50 stood at 1.3. The inhibition at 72 h, 80 µM in data set [8] is 59%. In [6], the selectivity ratio was 11.6.
As to `CC(C)=CCC[C@H](C)[C@H]1c2cc(C(=O)O)c(O)c(O)c2[C@H](C)C[C@H]1O`, in the data set with Plasmodium falciparum [9], the result was inactive.
`CC(C)=CCC[C@H](C)[C@H]1c2cc(C(=O)NCc3ccc(Br)cc3)c(OC(=O)C(C)(C)C)c(OC(=O)C(C)(C)C)c2[C@H](C)C[C@H]1OC(=O)C(C)(C)C`: the pIC50 in the data set with Plasmodium falciparum [1] is 5.85; in the data set on Plasmodium falciparum [2], 5.30; in the data set with HEK293 [5] it was 4.40. In data set [3], the Ratio IC50 is 3.6. In addition, the inhibition at 72 h, 80 µM in data set [8] was found to be 71%. In [6], the selectivity ratio was 28.
Regarding `CC(C)=CCC[C@H](C)[C@H]1c2cc(C(=O)NCCc3ccc(Br)cc3)c(OC(=O)C(C)(C)C)c(OC(=O)C(C)(C)C)c2[C@H](C)C[C@H]1OC(=O)C(C)(C)C`, the pIC50 is 5.51 in the data set on Plasmodium falciparum [1], 5.13 in the data set with Plasmodium falciparum [2] and 4.10 with HEK293 [5]. In data set [3], the Ratio IC50 turned out to be 2.4. In addition, the “growth inhibition (GI)” value in the data set on HEK293 [4] was “Non-Toxic”. Further, in data set [6], the selectivity ratio is more than 26.
`CC(C)=CCC[C@H](C)[C@H]1c2cc(C(=O)NCc3ccc(F)cc3)c(OC(=O)C(C)(C)C)c(OC(=O)C(C)(C)C)c2[C@H](C)C[C@H]1OC(=O)C(C)(C)C`: the negative-log IC50 (pIC50) with Plasmodium falciparum [1] was 5.75; in the data set on Plasmodium falciparum [2] it was 5.21; in the data set with HEK293 [5], 4.10. The Ratio IC50 in data set [3] is 3.4. The inhibition at 72 h, 80 µM in [8] turned out to be 44%. In addition, in data set [6], the selectivity ratio worked out at 44.
`CC(C)=CCC[C@H](C)[C@H]1c2cc(C(=O)NCCc3ccc(Cl)cc3)c(OC(=O)C(C)(C)C)c(OC(=O)C(C)(C)C)c2[C@H](C)C[C@H]1OC(=O)C(C)(C)C`: the pIC50 was 5.57 in the data set on Plasmodium falciparum [1], 5.23 in the data set on Plasmodium falciparum [2] and 4.10 in the data set on HEK293 [5]. The Ratio IC50 in data set [3] worked out at 2.2. In addition, the “growth inhibition (GI)” value in the data set on HEK293 [4] is “Non-Toxic”. Further, the selectivity ratio in data set [6] was more than 30.
In the case of `CC(C)=CCC[C@H](C)[C@H]1c2cc(C(=O)NCCN(C)C)c(OC(=O)C(C)(C)C)c(OC(=O)C(C)(C)C)c2[C@H](C)C[C@H]1OC(=O)C(C)(C)C`, the pIC50 was 5.25 in the data set on Plasmodium falciparum [1], 5.06 in the data set with Plasmodium falciparum [2] and 4.84 with HEK293 [5]. The Ratio IC50 in [3] is 1.6. The selectivity ratio in [6] amounted to 2.6.
Take `CCN(CC)CCCC(C)Nc1ccnc2cc(Cl)ccc12` (stereo not given) [CHLOROQUINE]: in the data set with HEK293 [5], the pIC50 is 4.40. Moreover, the “growth inhibition (GI)” value in the data set on HEK293 [11] is reported as “Non-Toxic”.
In the case of `CC(C)=CCC[C@H](C)[C@H]1c2cc(C(=O)NCc3ccc(Cl)cc3)c(OC(=O)C(C)(C)C)c(OC(=O)C(C)(C)C)c2[C@H](C)C[C@H]1OC(=O)C(C)(C)C`, the negative-log IC50 (pIC50) was 5.87 in the data set on Plasmodium falciparum [1], 5.30 with Plasmodium falciparum [2] and 4.40 in the data set with HEK293 [5]. In [3], the Ratio IC50 amounted to 3.6. The inhibition at 72 h, 80 µM in [8] is 86%. Further, the selectivity ratio in [6] is 29.4.
